Experimental findings from US20170283440A1, “CARM1 INHIBITORS AND USES THEREOF” (Epizyme, Inc., priority 2014, published 2017) are described below.

The target of assay [1] is T1, Human CARM1 (PRMT4) (Homo sapiens, UniProt Q86X55).
T1 construct: Flag-CARM1-His was eluted with 200 ug/ml FLAG peptide in buffer A; made in house; host or cells: HEK 293F cells infected with recombinant baculovirus (pFastBacMam)
As to the kind of experiment: CARM1 enzyme assay on peptide substrate (3H-SAM Flashplate). The format is biochemical. Conditions: CARM1 0.25 nM, 3H-SAM 30 nM, peptide 250 nM; read-out: Biochem IC50. The source says: S-adenosylmethionine (SAM), S-adenosylhomocysteine (SAH), bicine, Tween20, dimethylsulfoxide (DMSO), bovine skin gelatin (BSG), sodium butyrate and Tris(2-carboxyethyl)phosphine hydrochloride solution (TCEP) were purchased from Sigma-Aldrich at the highest level of purity possible. ^3H-SAM was purchase from American Radiolabeled Chemicals with a specific activity of 80 Ci/mmol. 384-well streptavidin Flashplates were purchased from PerkinElmer.
Peptide representative of human histone H3 residues 16-30 was synthesized with an N-terminal linker-affinity tag motif and a C-terminal amide cap by 21st Century Biochemicals. The peptide was purified by high-performance liquid chromatography (HPLC) to greater than 95% purity and confirmed by liquid chromatography mass spectrometry (LC-MS). The sequence was Biot-Ahx-[…]-amide and contained a monomethylated arginine at position 26 (SEQ ID NO.:1).
Human CARM1 (PRMT4) (NM_199141.1) transcript clone was amplified from an HEK 293 cDNA library, incorporating a flanking 5′ sequence encoding a FLAG tag ([…]) (SEQ ID NO.:2) fused directly to Ala 2 of CARM1 and 3′ sequence encoding a hexa His sequence ([…]) (SEQ ID NO.:3) fused directly to Ser 608. The gene sequence encoding isoform1 containing a deletion of amino acids 539-561 was amplified subsequently and subcloned into pFastBacMam (Viva Biotech).
Recombinant baculovirus were generated according to Bac-to-Bac kit instructions (Life Technologies). Protein over-expression was accomplished by infecting exponentially growing HEK 293F cell culture at 1.3×10^6 cell/ml with virus (MOI=10) in the presence of 8 mM sodium butyrate. Infections were carried out at 37° C. for 48 hours, harvested by centrifugation, and stored at −80° C. for purification.
Column was washed with 500 mM NaCl in buffer A and Flag-CARM1-His was eluted with 200 ug/ml FLAG peptide in buffer A. Pooled fractions were dialyzed in 20 mM Tris, 150 mM NaCl, 5% glycerol and 1 mM DTT, pH 7.8. The purity of recovered protein was 94.
The assays were all performed in a buffer consisting of 20 mM Bicine (pH=7.6), 1 mM TCEP, 0.005% BSG, and 0.002% Tween 20, prepared on the day of use. Compounds in 100% DMSO (1 ul) were spotted into a polypropylene 384-well V-bottom plates (Greiner) using a Platemate Plus outfitted with a 384-channel head (Thermo Scientific). DMSO (1 ul) was added to Columns 11, 12, 23, 24, rows A-H for the maximum signal control and 1 ul of SAH, a known product and inhibitor of CARM1, was added to columns 11, 12, 23, 24, rows I—P for the minimum signal control. A cocktail (40 ul) containing the CARM1 enzyme was added by Multidrop Combi (Thermo-Fisher). The compounds were allowed to incubate with CARM1 for 30 min at room temperature, then a cocktail (10 ul) containing ^3H-SAM and peptide was added to initiate the reaction (final volume=51 ul). The final concentrations of the components were as follows: CARM1 was 0.25 nM, ^3H-SAM was 30 nM, peptide was 250 nM, SAH in the minimum signal control wells was 1 mM, and the DMSO concentration was 2%. The assays were stopped by the addition of non-radiolabeled SAM (10 ul) to a final concentration of 300 uM, which dilutes the ^3H-SAM to a level where its incorporation into the peptide substrate is no longer detectable. 50 ul of the reaction in the 384-well polypropylene plate was then transferred to a 384-well Flashplate and the biotinylated peptides were allowed to bind to the streptavidin surface for at least 1 hour before being washed once with 0.1% Tween20 in a Biotek ELx405 plate washer. The plates were then read in a PerkinElmer TopCount plate reader to measure the quantity of ^3H-labeled peptide bound to the Flashplate surface, measured as disintegrations per minute (dpm) or alternatively, referred to as counts per minute (cpm).
where dpm=disintegrations per minute, cmpd=signal in assay well, and min and max are the respective minimum and maximum signal controls. […]

For assay [2], the system named is asymmetric di-methyl PABP1 in RKO cells. As to the kind of experiment: RKO methylation assay (In Cell Western for asymmetric di-methyl PABP1). The class given is cell-based. Conditions: 48 hours incubation, read-out: Cellular IC50. An excerpt:
RKO adherent cells were purchased from ATCC (American Type Culture Collection), Manassas, Va., USA. DMEM/Glutamax medium, penicillin-streptomycin, heat inactivated fetal bovine serum, 0.05% trypsin and D-PBS were purchased from Life Technologies, Grand Island, N.Y., USA. Odyssey blocking buffer, 800CW goat anti-rabbit IgG (H+L) antibody, and Licor Odyssey infrared scanner were purchased from Licor Biosciences, Lincoln, Nebr., USA. Asymmetric di-methyl PABP1 antibody was purchased from Cell Signaling Technology, Danvers, Mass., USA. Methanol was purchased from VWR, Franklin, Mass., USA. 10% Tween 20 was purchased from KPL, Inc., Gaithersburg, Md., USA. Paraformaldehyde (PFA) was purchased from EM Sciences. DRAQ5 was purchased from Biostatus Limited, Leicestershire, UK.
RKO adherent cells were maintained in growth medium (DMEM/Glutamax medium supplemented with 10% v/v heat inactivated fetal bovine serum and 100 units/mL penicillin-streptomycin) and cultured at 37° C. under 5% CO2.
Compound (100 nL) from a 96-well source plate was added directly to 384 well cell plate. Plates were incubated at 37° C., 5% CO2 for 48 hours. After two days of incubation, plates were brought to room temperature outside of the incubator for ten minutes and blotted on paper towels to remove cell media. Cells were fixed for 20 minutes at room temperature by adding 50 ul of 8% PFA followed by aspiration of supernatant with the Biotek EL406 plate washer. Cells were then permeabilized by addition of 50 μL of ice cold 100% methanol directly to each well and incubated for 30 min at room temperature. After 30 min, plates were transferred to a Biotek EL406 plate washer and washed 2 times with 100 μL per well of wash buffer (IX PBS). Next 60 μL per well of Odyssey blocking buffer (Odyssey Buffer with 0.1% Tween 20 (v/v)) were added to each plate and incubated 1 hour at room temperature. Blocking buffer was removed and 20 μL per well of primary antibody was added (asymmetric-methyl PABP1) diluted 1:400 in Odyssey buffer with 0.1% Tween 20 (v/v)) and plates were incubated overnight (16 hours) at 4° C. Plates were washed 5 times with 100 μL per well of wash buffer. Next 20 μL per well of secondary antibody was added (1:800 800CW goat anti-rabbit IgG (H+L) antibody, 1:2000 DRAQ5 in Odyssey buffer with 0.1% Tween 20 (v/v)) and incubated for 1 hour at room temperature. The plates were washed 5 times with 100 μL per well wash buffer then 2 times with 100 μL per well of water. Plates were allowed to dry at room temperature then imaged on the Licor Odyssey machine which measures integrated intensity at 700 nm and 800 nm wavelengths. Both 700 and 800 channels were scanned.
First, the ratio for each well was determined by:
Each plate included fourteen control wells of DMSO only treatment (minimum inhibition) as well as fourteen control wells for maximum inhibition treated with 20 μM of a reference compound. The average of the ratio values for each control type was calculated and used to determine the percent […] for each test well in the plate. Reference compound was serially diluted three-fold in DMSO for a total of nine test concentrations, beginning at 20 μM.
Percent inhibition was determined and IC50 curves were generated using triplicate wells per concentration of compound.

Like-named read-outs stand apart in the source and are kept apart here.

T1 sequence (Q86X55 other isoform, or with tags, fused parts or gaps): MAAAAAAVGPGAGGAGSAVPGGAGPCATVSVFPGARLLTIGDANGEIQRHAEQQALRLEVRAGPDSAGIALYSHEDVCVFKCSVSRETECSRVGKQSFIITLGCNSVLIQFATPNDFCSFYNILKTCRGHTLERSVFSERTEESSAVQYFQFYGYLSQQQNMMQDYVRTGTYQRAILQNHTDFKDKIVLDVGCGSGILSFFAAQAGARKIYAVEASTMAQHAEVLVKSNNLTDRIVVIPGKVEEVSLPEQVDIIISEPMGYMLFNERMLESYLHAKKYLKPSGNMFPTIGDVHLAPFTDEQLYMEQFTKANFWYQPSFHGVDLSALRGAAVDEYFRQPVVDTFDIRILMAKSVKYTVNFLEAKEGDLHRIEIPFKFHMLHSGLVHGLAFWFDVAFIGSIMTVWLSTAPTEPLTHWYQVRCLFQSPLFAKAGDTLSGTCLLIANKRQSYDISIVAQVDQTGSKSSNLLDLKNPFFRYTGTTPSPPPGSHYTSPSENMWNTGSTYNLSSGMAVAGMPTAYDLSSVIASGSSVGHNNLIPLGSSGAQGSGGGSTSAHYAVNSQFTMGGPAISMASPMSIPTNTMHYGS

Take `Cc1nn(C(C)C)c2nc(-c3cccc(OCC(O)CN)c3)cc(N3CCOCC3)c12` (centres unmarked) [Example 1-2]: the figures for the IC50 in assay [1] and in assay [2] (Homo sapiens) were under 0.1 µM and 10 to 20 µM, respectively.
In the case of `CNCC(O)COc1cccc(-c2cc(C(=O)NCc3c(C)cc(C)[nH]c3=O)c3cnn(C(C)C)c3n2)c1` (centres unmarked) [Example 1-3], the IC50 was under 0.1 µM in assay [1] and over 20 µM in assay [2] (Homo sapiens).
On the same counts, the results for `CCOC(=O)c1c(-c2cccc(OCC(O)CNC)c2)nc2c(cnn2C(C)C)c1N1CCOCC1` (centres unmarked) [Example 1-5] are 0.1 to 1 µM and over 20 µM.
Taken in the same sequence, the figures for `CNCC(O)COc1cc(OC)cc(-c2cc(-c3cnc4[nH]ccc4c3)n3ncc(C(C)C)c3n2)c1` (centres unmarked) [Example 1-6] were under 0.1 µM and over 20 µM.
For the compound `CNCC(O)COc1cc(OC)cc(-c2cc(-c3cnc4[nH]ccc4c3)nc3c(C(C)C)cnn23)c1` (centres unmarked) [Example 1-7], the IC50 in assay [1] is under 0.1 µM; in assay [2] (Homo sapiens), over 20 µM.
In the case of `CC(C)n1ncc2c(N3CCOCC3)cc(-c3cccc(OC[C@H](O)CN)c3)nc21` [Example 1-8], the results for the IC50 in assay [1] and in assay [2] (Homo sapiens) were under 0.1 µM and 10 to 20 µM, respectively.
Taken in the same sequence, the figures for `CNCC(O)COc1cc(Cl)cc(-c2cc(N(C)C3CCOCC3)n3ncc(C4CC4)c3n2)c1` (centres unmarked) [Example 1-9] were under 0.1 µM and over 20 µM.
Taken in the same sequence, the figures for `CNCC(O)COc1cccc(-c2cc(NC3CCOCC3)c3c(C4CC4)nn(C(C)C)c3n2)c1` (centres unmarked) [Example 2-2] were under 0.1 µM and over 20 µM.
In the case of `CNCC(O)COc1cc(Cl)cc(-c2cc(NC3CCOCC3)c3cnn(C(C)C)c3n2)c1` (centres unmarked) [Example 2-4], the figures for the IC50 in assay [1] and in assay [2] (Homo sapiens) were under 0.1 µM and over 20 µM, respectively.
`CNCC(O)COc1cc(OC)cc(-c2cc(N(C)C3CCOCC3)n3ncc(C(C)C)c3n2)c1` (centres unmarked) [Example 2-6]: the IC50 in assay [1] is under 0.1 µM; in assay [2] (Homo sapiens) it was 5 to 10 µM.
As to `CNCC(O)COc1cc(Cl)cc(-c2cc(-c3cc[nH]n3)nc3c(C(C)C)cnn23)c1` (centres unmarked) [Example 2-7], the concentration for half-maximal inhibition (IC50) was under 0.1 µM in assay [1] and over 20 µM in assay [2] (Homo sapiens).
`Cc1cc(C)c(CNC(=O)c2cc(-c3cccc(OCC(O)CN)c3)nc3c2cnn3C(C)C)c(=O)[nH]1` (centres unmarked) [Example 2-8]: the values for the IC50 in assay [1] and in assay [2] (Homo sapiens) were under 0.1 µM and over 20 µM, respectively.
For `CNCC(O)COc1cc(OC)cc(-c2cc(N(C)C3CCOCC3)n3ncc(C4CC4)c3n2)c1` (centres unmarked) [Example 2-9], the IC50 is under 0.1 µM in assay [1] and over 20 µM in assay [2] (Homo sapiens).
Taken in the same sequence, the figures for `CNCC(O)COc1cccc(-c2cc(N3CCOCC3)c3c(C)nn(C(C)C)c3n2)c1` (centres unmarked) [Example 3-2] were under 0.1 µM and 10 to 20 µM.
In the case of `CC(C)n1ncc2c(C(=O)NCC3CCOCC3)cc(-c3cccc(OCC(O)CN)c3)nc21` (centres unmarked) [Example 3-3], the IC50 in assay [1] is 0.1 to 1 µM; in assay [2] (Homo sapiens), over 20 µM.
In the case of `CNCC(O)COc1cc(OC)cc(-c2cc(N(C)c3cncnc3)c3cnn(C(C)C)c3n2)c1` (centres unmarked) [Example 3-4], the IC50 in assay [1] is under 0.1 µM; in assay [2] (Homo sapiens), 10 to 20 µM.
Turning to `CNCC(O)COc1cccc(-c2nc(NC3CCOCC3)c3cnn(C(C)(C)C)c3n2)c1` (centres unmarked) [Example 3-5], the half-maximal inhibitory concentration (IC50) in assay [1] was under 0.1 µM; in assay [2], 5 to 10 µM.
Regarding `CNCC(O)COc1cc(-c2cc(N3CCOCC3)n3ncc(C(C)C)c3n2)cc(C2CC2)c1` (centres unmarked) [Example 3-6], the concentration for half-maximal inhibition (IC50) was under 0.1 µM in assay [1] and over 20 µM in assay [2] (Homo sapiens).
On to `CNCC(O)COc1cc(OC)cc(-c2cc(N3CCOCC3)nc3c(C4CC4)cnn23)c1` (centres unmarked) [Example 3-7], for which the IC50 was under 0.1 µM in assay [1] and 10 to 20 µM in assay [2] (Homo sapiens).
In the case of `CNCC(O)COc1cccc(-c2cc(NCC#N)c3cnn(C(C)C)c3n2)c1` (centres unmarked) [Example 3-8], the concentration for half-maximal inhibition (IC50) in assay [1] was 0.1 to 1 µM; in assay [2] (Homo sapiens), over 20 µM.
For the compound `CNCC(O)COc1cccc(-c2cc(N(C)Cc3ccccn3)c3cnn(C(C)C)c3n2)c1` (centres unmarked) [Example 3-9], the IC50 in assay [1] was under 0.1 µM; in assay [2] (Homo sapiens), 10 to 20 µM.
With `CNCC(O)COc1cccc(-c2cc(NC3CCOCC3)c3c(C)nn(C(C)C)c3n2)c1` (centres unmarked) [Example 4-2], the values for the IC50 in assay [1] and in assay [2] (Homo sapiens) were under 0.1 µM and 10 to 20 µM, respectively.
On the same counts, the results for `Cc1cc(OCC(O)CN)cc(-c2cc(N3CCOCC3)c3cnn(C(C)C)c3n2)c1` (centres unmarked) [Example 4-4] are under 0.1 µM and 10 to 20 µM.
As for `CNCC(O)COc1cccc(-c2cc(-c3cnc4[nH]ccc4c3)nc3c(C(C)C)cnn23)c1` (centres unmarked) [Example 4-7], the IC50 in assay [1] was under 0.1 µM; in assay [2] (Homo sapiens) it was over 20 µM.
Regarding `CC(C)c1cnn2c(N3CCOCC3)cc(-c3cccc(OCC(O)CN)c3)nc12` (centres unmarked) [Example 4-8], the figures for the 50% inhibitory concentration (IC50) in assay [1] and in assay [2] (Homo sapiens) were under 0.1 µM and over 20 µM, respectively.
With `CNCC(O)COc1cccc(-c2cc(N(C)[C@H]3CCOC3)n3ncc(C(C)C)c3n2)c1` (some centres unmarked) [Example 14-6], the concentration for half-maximal inhibition (IC50) in assay [1] was under 0.1 µM.
For the compound `CNCC(O)COc1cccc(-c2cc(N(C)C3CCOCC3)n3ncc(C(C)(C)C)c3n2)c1` (centres unmarked) [Example 16-8], the half-inhibitory concentration (IC50) in assay [1] is under 0.1 µM.
Take `CNCC(O)COc1cc(OC)cc(-c2cc(N(C)C3CCOCC3)n3ncc(C4CC4)c3n2)c1` (centres unmarked) [Example 44-6]: the half-inhibitory concentration (IC50) in assay [1] is under 0.1 µM.
